For the first test, the target named is T1, His-tagged human recombinant DDR-2 kinase domain (His-TEV-DDR2 467-855 aa) (Homo sapiens, UniProt Q16832).
T1 construct: His-TEV-DDR2 467-855 aa
T1 sequence (Q16832 467-855): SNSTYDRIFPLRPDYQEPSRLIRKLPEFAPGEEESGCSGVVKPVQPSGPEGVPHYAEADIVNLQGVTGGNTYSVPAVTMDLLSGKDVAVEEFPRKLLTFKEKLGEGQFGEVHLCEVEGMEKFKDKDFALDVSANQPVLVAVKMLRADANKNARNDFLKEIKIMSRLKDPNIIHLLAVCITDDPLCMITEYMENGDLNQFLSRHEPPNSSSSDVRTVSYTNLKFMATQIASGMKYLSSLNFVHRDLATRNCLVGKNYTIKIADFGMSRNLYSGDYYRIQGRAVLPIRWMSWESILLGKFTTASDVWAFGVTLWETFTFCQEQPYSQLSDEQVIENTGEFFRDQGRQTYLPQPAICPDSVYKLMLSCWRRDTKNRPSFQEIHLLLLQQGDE
The test is described as follows: Autophosphorylation assay for biochemical activity testing of DDR2 (HTRF). The following applies: 4 nM DDR2 kinase domain, 150 μM ATP, 150 min at 22° C. The protocol:
The autophosphorylation assay was run in two steps: the enzymatic reaction in which His-tagged DDR2 with ATP as co-substrate phosphorylates itself and the detection reaction where a time resolved FRET between XL665® labelled anti-6His antibody bound to the His-tag of the enzyme and cryptate labelled anti-phospho-Tyrosine-antibody (PT66) bound the phosphorylated Tyrosine residue of DDR2 was analysed. The autophosphorylation activity was detectable directly via the increase in HTRF signal.
The autophosphorylation assay was performed as 1536 well or 384 well HTRF® (Cisbio, Codolet, France) assay format in Greiner low volume medium binding 384-well microtiter plates and was used for high throughput screen. […] The ratio of the emission signals was determined. The full value used was the inhibitor-free reaction.
A general note: Time-resolved FRET reads energy transfer from a long-lived donor to a nearby acceptor.
Regarding `CNC(=O)c1cc(Oc2ccc(COC(=O)Nc3cc(C(F)(F)F)ccn3)cc2)ccn1` [compound 3], the IC50 (usually the concentration at which inhibition is half-maximal) is 33 nM.
On the same count and under the same terms, in the case of `CNC(=O)c1cc(Oc2ccc(CNC(=O)Nc3cc(C)ccn3)cc2C)ccn1` [compound 15] it was 400 nM; in that of `CNC(=O)c1cc(Oc2ccc(CNC(=O)Nc3ccc(OC)nc3)cc2)ccn1` [compound 17], 5600 nM.

Still in this test, the particulars now being: Table 6; 4 nM DDR2 kinase domain, 150 μM ATP.
Consider `CNC(=O)c1cc(Oc2ccc(C(O)CC(=O)Nc3ccc(Cl)c(C(F)(F)F)c3)cc2C)ccn1` (centres unmarked) [compound 2], for which the half-inhibitory concentration (IC50) is 21000 nM.

Staying with this test, now noted: biochemical DDR2 autophosphorylation.
On to `CNC(=O)c1cc(Oc2ccc(CNC(=O)Nc3cc(C(F)(F)F)ccc3OCCN3CCOCC3)cc2)ccn1` [compound 109, 4-(4-{3-[2-(2-Morpholin-4-yl-ethoxy)-5-trifluoromethyl-phenyl]-ureidomethyl}-phenoxy)-pyridine-2-carboxylic acid methylamide], for which the IC50 was 72 nM.
Same read-out and setting: under `COc1ccc(OC)c(NC(=O)NCc2ccc(Oc3ccncc3)cc2)c1` [compound 15] stands 440 nM; under `O=C(NCc1ccc(Oc2ccncc2)cc1)Nc1cc(C(F)(F)F)cc(C(F)(F)F)c1` [compound 22], 560 nM.
The same measure, in the same setting: under `CC(=O)c1ccc(NC(=O)NCc2ccc(Oc3ccncc3)cc2)cc1` [compound 47, 1-(4-Acetyl-phenyl)-3-[4-(pyridin-4-yloxy)-benzyl]-urea] stands 8800 nM.
Still for that read-out and setting: under `CNC(=O)c1cc(Oc2ccc(CNC(=O)Nc3cc(C(F)(F)F)c(Cl)cc3OCC(=O)OC(C)(C)C)cc2)ccn1` [compound 107, (5-Chloro-2-{3-[4-(2-methylcarbamoyl-pyridin-4-yloxy)-benzyl]-ureido}-4-trifluoromethyl-phenoxy)-acetic acid tert-butyl ester] stands 22 nM; under `CCOc1ccc(C(F)(F)F)cc1NC(=O)NCc1ccc(Oc2ccnc(C(=O)NC)c2)c(C)c1` [compound 229, 4-{4-[3-(2-Ethoxy-5-trifluoromethyl-phenyl)-ureidomethyl]-2-methyl-phenoxy}-pyridine-2-carboxylic acid methylamide], 84 nM; under `CNC(=O)c1cc(Oc2ccc(C(C)NC(=O)Nc3cc(C(F)(F)F)ccc3OC)cc2)ccn1` (centres unmarked) [compound 69, 4-(4-{1-[3-(2-Methoxy-5-trifluoromethyl-phenyl)-ureido]-ethyl}-phenoxy)-pyridine-2-carboxylic acid methylamide], 150 nM.
As for `Cc1ccc(C)c(NC(=O)NCc2ccc(Oc3ccncc3)cc2)c1` [compound 25], the IC50 turned out to be 13000 nM.
On the same count and under the same terms, in the case of `CCc1ccccc1NC(=O)NCc1ccc(Oc2ccncc2)cc1` [compound 28] it was at least 100000 nM; in that of `CNC(=O)c1cc(Oc2ccc(CNC(=O)Nc3cc(C)c(Cl)cc3OCCCCN(C)C)cc2)ccn1` [compound 161, 4-(4-{3-[4-Chloro-2-(4-dimethylamino-butoxy)-5-methyl-phenyl]-ureidomethyl}-phenoxy)-pyridine-2-carboxylic acid methylamide], 160 nM; in that of `CNC(=O)c1cc(Oc2ccc(CNC(=O)Nc3cc(Cl)cnc3Cl)cc2)ccn1` [compound 93, 4-{4-[3-(2,5-Dichloro-pyridin-3-yl)-ureidomethyl]-phenoxy}-pyridine-2-carboxylic acid methylamide], 42 nM.
On the same count and under the same terms, in the case of `Cc1cc(NC(=O)NCc2ccc(Oc3cc(N)ncn3)c(C)c2)c(OCCN(C)C)cc1Cl` [compound 251, 1-[4-(6-Amino-pyrimidin-4-yloxy)-3-methyl-benzyl]-3-[4-chloro-2-(2-dimethylamino-ethoxy)-5-methyl-phenyl]-urea] it was 440 nM.
The same measure, in the same setting: in the case of `CNC(=O)c1cc(Oc2ccc(CNC(=O)Nc3cc(C)c(Cl)cc3OCCNC(=O)C(F)(F)F)cc2)ccn1` [compound 187, 4-[4-(3-{4-Chloro-5-methyl-2-[2-(2,2,2-trifluoro-acetylamino)-ethoxy]-phenyl}-ureidomethyl)-phenoxy]-pyridine-2-carboxylic acid methylamide] it was 660 nM.

(Values after patent US20150225369A1, “DDR2 INHIBITORS FOR THE TREATMENT OF OSTEOARTHRITIS” (Merck Patent GmbH, priority 2012, published 2015).)
